The molecules below were run against T1, Receptor-type tyrosine-protein kinase FLT3 (Homo sapiens, UniProt P36888) (assay: Inhibition of human N-terminal GST-tagged FLT3 cytoplasmic domain (564 to 993 residues) expressed in baculovirus expression system using 5-FAM-peptide 2 as substrate after 2 hrs by electrophoretic mobility shift assay in presence of ATP).
T1 sequence (P36888 whole entry): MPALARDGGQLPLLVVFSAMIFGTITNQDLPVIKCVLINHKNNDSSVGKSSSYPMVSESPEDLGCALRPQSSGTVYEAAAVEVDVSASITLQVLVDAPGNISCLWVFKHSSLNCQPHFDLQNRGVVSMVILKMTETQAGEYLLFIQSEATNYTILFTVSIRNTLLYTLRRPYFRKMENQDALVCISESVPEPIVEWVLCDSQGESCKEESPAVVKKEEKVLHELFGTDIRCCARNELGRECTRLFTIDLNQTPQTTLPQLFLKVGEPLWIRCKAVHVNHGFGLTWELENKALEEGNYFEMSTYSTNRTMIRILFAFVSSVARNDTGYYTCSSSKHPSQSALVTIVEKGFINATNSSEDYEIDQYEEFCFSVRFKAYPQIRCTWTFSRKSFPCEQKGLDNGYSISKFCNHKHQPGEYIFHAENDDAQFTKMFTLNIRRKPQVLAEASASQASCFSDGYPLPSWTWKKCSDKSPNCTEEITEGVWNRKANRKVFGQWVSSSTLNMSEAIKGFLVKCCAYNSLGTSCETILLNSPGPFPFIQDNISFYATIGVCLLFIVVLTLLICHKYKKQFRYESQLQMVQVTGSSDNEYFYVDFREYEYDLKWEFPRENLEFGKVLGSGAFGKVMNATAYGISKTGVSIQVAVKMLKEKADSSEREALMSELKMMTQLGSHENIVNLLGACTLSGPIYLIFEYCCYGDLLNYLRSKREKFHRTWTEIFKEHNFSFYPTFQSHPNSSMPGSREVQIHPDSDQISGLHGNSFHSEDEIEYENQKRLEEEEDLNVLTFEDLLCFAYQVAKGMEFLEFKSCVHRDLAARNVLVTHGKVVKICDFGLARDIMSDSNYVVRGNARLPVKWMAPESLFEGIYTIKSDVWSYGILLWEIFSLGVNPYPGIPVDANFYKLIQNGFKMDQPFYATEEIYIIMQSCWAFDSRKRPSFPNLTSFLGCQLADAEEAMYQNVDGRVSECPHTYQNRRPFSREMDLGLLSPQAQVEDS

IC50 [nM] | SMILES
> 2000 | O=C(Nc1ccccc1)c1c[nH]c2ccccc12
> 2000 | Cc1ccccc1NC(=O)c1n[nH]c2ccccc12
> 2000 | COC(=O)c1ccccc1NC(=O)c1n[nH]c2ccccc12
> 2000 | COC(=O)c1cccc(NC(=O)c2n[nH]c3ccccc23)c1
> 2000 | CN(C(=O)c1n[nH]c2ccccc12)c1ccccc1
> 2000 | COc1ccccc1NC(=O)c1n[nH]c2ccccc12
352 | COc1ccc(NC(=O)c2n[nH]c3ccccc23)cc1
> 2000 | O=C(Nc1ccc(N2CCN(c3ccccc3)CC2)cc1)c1n[nH]c2ccccc12

SMILES | IC50 [nM]
Cn1nc(C(=O)Nc2ccccc2)c2ccccc21 | > 2000

Reference: ChEMBL document CHEMBL3792292, “Development of a potent and selective FLT3 kinase inhibitor by systematic expansion of a non-selective fragment-screening hit” (Bioorg Med Chem Lett, 2016)
